Data as given in ChEMBL document CHEMBL3352147, “Synthesis and structure-activity relationship of 4-azaheterocycle benzenesulfonamide derivatives as new microtubule-targeting agents” (Bioorg Med Chem Lett, 2014).
Calls of active or inactive are those of the source. The calls are words filed in the database; no cut-off is given here.

Assays:
[1] = Antiproliferative activity against human HCT116 cells assessed as inhibition of cell proliferation by MTT assay; type: functional, cell-based; conditions: HCT-116
[2] = Antiproliferative activity against human PC3 cells assessed as inhibition of cell proliferation by MTT assay; type: functional, cell-based; conditions: PC-3
HepG2 = experiment: Antiproliferative activity against human HepG2 cells assessed as inhibition of cell proliferation by MTT assay; type: functional, cell-based
[3] = Antiproliferative activity against human SKOV3 cells assessed as inhibition of cell proliferation by MTT assay; type: functional, cell-based; conditions: SK-OV-3
[4] = target: T1, Tubulin alpha (Homo sapiens) (UniProt P0DPH7+P68366+Q71U36+P68363+Q9BQE3+Q6PEY2+A6NHL2+Q9NY65); experiment: Inhibition of tubulin alpha in human LoVo cells assessed as effect on microtubule spindles at 20 nM after 24 hrs; type: cell-based
[5] = target: T1, Tubulin alpha (Homo sapiens); experiment: Inhibition of tubulin alpha in human LoVo cells assessed as effect on microtubule spindles at 100 nM after 24 hrs; type: cell-based
[6] = target: T1, Tubulin alpha (Homo sapiens); experiment: Inhibition of tubulin alpha in human LoVo cells assessed as effect on tubulin intensity level at 20 nM; type: cell-based
[7] = target: T1, Tubulin alpha (Homo sapiens); experiment: Inhibition of tubulin alpha in human LoVo cells assessed as effect on tubulin intensity level at 100 nM; type: cell-based
[8] = Antiproliferative activity against human BGC823 cells assessed as inhibition of cell proliferation at 10 uM by MTT assay; type: functional; conditions: BGC-823
A549 = experiment: Antiproliferative activity against human A549 cells assessed as inhibition of cell proliferation at 10 uM by MTT assay; type: functional
Jurkat = experiment: Antiproliferative activity against human Jurkat cells assessed as inhibition of cell proliferation at 10 uM by MTT assay; type: functional
[9] = Antiproliferative activity against HEK293T cells assessed as inhibition of cell proliferation at 10 uM by MTT assay; type: cell-based, HEK-293T; conditions: human

IC50 (HepG2) [nM] | inhibition [4] | inhibition [5] | inhibition [6] | inhibition [7] | Compound | IC50 [1] [nM] | IC50 [2] [nM] | IC50 [3] [nM] | inhibition at 10 µM [8] [%] | inhibition at 10 µM (A549) [%] | inhibition at 10 µM (Jurkat) [%] | inhibition at 10 µM [9] [%]
58 | Active | Active | Active | Active | O=S(=O)(c1ccc(-c2cnc(C3CC3)o2)cc1)N1CCc2ccccc21 | 105 | 62 | 55 |  |  |  | 
16800 |  |  |  |  | CC1Cc2ccccc2N1S(=O)(=O)c1ccc(-c2cnc(C3CC3)o2)cc1 (stereo unspecified) | 14400 | 20500 | 12400 | 81.8 | 52.4 | 89.9 | 61.3
273 |  |  |  |  | O=[N+]([O-])c1ccc2c(c1)N(S(=O)(=O)c1ccc(-c3cnc(C4CC4)o3)cc1)CC2 | 181 | 14 | 114 | 97.7 | 50.3 | 96.7 | 77.8
 |  |  |  |  | O=S(=O)(c1ccc(-c2cnc(C3CC3)s2)cc1)N1CCc2ccccc21 |  |  |  | 38.5 | -10.1 | 29.8 | -15.4
 |  |  |  |  | O=S(=O)(c1ccc(-c2cnc(C3CC3)o2)cc1)N1CCc2cc(F)ccc21 |  |  |  | 18.3 | 36.1 | 24.3 | 25.7
2180 |  |  |  |  | O=S(=O)(c1ccc(-c2cnc(C3CC3)o2)cc1Cl)N1CCc2ccccc21 | 422 |  | 220 |  |  |  | 
25800 |  |  |  |  | C=Cc1ncc(-c2ccc(S(=O)(=O)N3CCc4ccccc43)cc2)o1 | 1330 |  | 1130 |  |  |  | 
 | Active | Active | Active | Active | O=S(=O)(c1ccc(-c2cnc(C3CC3)o2)cc1)N1CCCc2ccccc21 |  |  |  |  |  |  | 
> 100000 |  |  |  |  | CCc1ncc(-c2ccc(S(=O)(=O)N3CCc4ccccc43)cc2)o1 | 309 |  | 154 |  |  |  | 
295 |  |  |  |  | Cc1ccc2c(c1)CCN2S(=O)(=O)c1ccc(-c2cnc(C3CC3)o2)cc1 | 233 | 189 | 201 | 79.1 | 63.4 | 91.1 | 74.7
 |  |  |  |  | CS(=O)(=O)c1ccc2c(c1)CCN2S(=O)(=O)c1ccc(-c2cnc(C3CC3)o2)cc1 |  |  |  | 28.3 | 4.14 | 13 | 6.54
1650 |  |  |  |  | O=[N+]([O-])c1ccc2c(c1)CCN2S(=O)(=O)c1ccc(-c2cnc(C3CC3)o2)cc1 | 1190 | 1920 | 1300 | 87.5 | 73.1 | 92.4 | 48.4
 |  |  |  |  | O=S(=O)(c1ccc(-c2cnc(C3CC3)o2)cc1)n1ccc2ccccc21 |  |  |  | 37.9 | 77.6 | 13.9 | 10.9
 |  |  |  |  | N#Cc1ccc2c(c1)CCN2S(=O)(=O)c1ccc(-c2cnc(C3CC3)o2)cc1 |  |  |  | 29.6 | 28.4 | 15.8 | 37.4
248 |  |  |  |  | O=S(=O)(c1ccc(-c2cnc(C3CC3)o2)cc1)N1CCc2ccc(Cl)cc21 | 255 | 138 | 144 | 87.4 | 63.6 | 95.5 | 71.9
> 100000 |  |  |  |  | O=S(=O)(c1ccc(-c2cnc(C3CC3)o2)cc1)N1CCCCC1 | > 100000 | > 100000 | > 100000 |  |  |  | 
1010 |  |  |  |  | O=c1[nH]n(S(=O)(=O)c2ccc(-c3cnc(C4CC4)o3)cc2)c2ccccc12 | 812 | 1460 | 474 | 83.7 | 66.5 | 94.7 | 80.9
13600 |  |  |  |  | O=S(=O)(c1ccc(-c2cnc(C3CC3)o2)cc1)N1CC2(CCCCC2)c2ccccc21 | 6130 | 6580 | 5200 | 84.1 | 58.4 | 94.8 | 76
 |  |  |  |  | O=S(=O)(c1ccc(-c2nnc(C3CC3)o2)cc1)N1CCc2ccccc21 |  |  |  | 27.7 | 63.7 | 31.7 | -13.8
55 | Active | Active | Active | Active | COc1ccc2c(c1)CCN2S(=O)(=O)c1ccc(-c2cnc(C3CC3)o2)cc1 | 112 | 82 | 39 |  |  |  | 
18700 |  |  |  |  | O=S(=O)(c1ccc(-c2cnc(C3CC3)o2)cc1F)N1CCc2ccccc21 | 168 |  | 139 |  |  |  | 
